Measured values from patent US20050112573A1, “Method of detecting toxic substance” (priority 2001, published 2005).

Tested on: yeast genes (level of expressed mRNA)
Experiment: DNA chip analysis of expressed mRNA of yeast genes after 2 h culture with a toxic chemical substance
Type: cell-based, Saccharomyces cerevisiae S288C
Conditions: for The level of expressed mRNA in the presence of chemical substance/ (ratio to absence of chemical substance): stress protein genes, DNA chip; for The level of expressed mRNA in the presence of chemical substance/ in its absence, gene YPR184W: yeast gene YPR184W
Procedure: Yeast (Saccharomyces cerevtisiae S288C (α SUC2mal mel gap2 CUP1)) were cultured at 25° C. on YPD medium (yeast extract 1%, polypepton 2%, glucose 2%). One of toxic chemical substances was added to the cell at logarithmic growth phase, and the cell was further cultured for two hours. Cell was cultured without any chemical substance in the same condition, and was used as control. Concentrations of the chemical substances were defined to inhibit the growth of the yeast but not lead to death.
After the completion of cultivation, the culture was centrifuged to collect the cells. To the cells, sodium acetate buffer (50 mM sodium acetate, 10 mM EDTA, 1% SDS) was added, and the mixture was shaken at 65° C. for five minutes, followed by returning to room temperature, and obtaining the supernatant, which procedure was repeated two times. To the supernatant, ½ amount of a solution of phenol/chloroform was added, and the mixture was centrifuged to give a supernatant, which was added with an equal amount of chloroform, and the mixture was centrifuged to give a supernatant. To the supernatant, an equal amount of isopropanol containing 0.3 M sodium acetate was added, and the mixture was allowed to stand at room temperature for 30 minutes, after which the mixture was centrifuged to give a sediment of the whole RNAs. Seventy % ethanol was added to the sediment, and the mixture was again centrifuged to give a sediment, which was then dried and dissolved in water. mRNA was isolated from the whole RNAs as followings. In view of the fact that a poly A chain is attached to the 3′ terminus of mRNA, a polynucleotide having a poly T structure which was immobilized on the surface of latex beads was used to trap the mRNA, and then the mRNA was washed and eluted with spine column (Oligotex-dT30<Super>mRNA Purification Kit, Takara). Reverse transcription of the mRNA was conducted with a reverse transcriptase (Super Script II Reverse Transcriptase; catalogue No. 18064-014, GibcoBRL) using fluorescence-labeled nucleotides to give cDNAs that were introduced with Cy3-dUTP or Cy5-dUTP during the reverse transcription.
The labeled cDNAs were dissolved in TE buffer (10 mM Tris-HCl/1 mM EDTA, pH8.0), and the solution was dropped on the DNA chip containing the whole genes of yeast (DNA Chip Research Inc. Japan) so that the cDNAs were hybridized on the DNA chip at 65° C. for over 12 hours. The fluoresces intensity of the DNA chip was read with a scanner, and the ratio relative to the fluorescence intensity resulting from the absence of chemical substance was estimated as the following, which is shown in Tables 1 to 9: [formula]
In the Tables, “Intensity” indicated in the rightmost column is a value of the level of expressed mRNA of each gene in control cells as divided by the average level of the expressions of the whole genes.

SMILES: CCCCC[C@H](O)CC(=O)CCc1ccc(O)c(OC)c1 [(13), gingerol]
- The level of expressed mRNA in the presence of chemical substance/The level of expressed mRNA in the absence of chemical substance (yeast gene YNL006W): 2.3
- The level of expressed mRNA in the presence of chemical substance/The level of expressed mRNA in the absence of chemical substance (yeast gene YNL007C): 2.1
- The level of expressed mRNA in the presence of chemical substance/ (in its absence), gene YNL025C (yeast gene YNL025C, ratio of DNA chip fluorescence intensity to that without chemical substance): 1.3
- The level of expressed mRNA in the presence of chemical substance/ (ratio to absence of chemical substance) (yeast gene YNL064C): 1.1
- The level of expressed mRNA in the presence of chemical substance/ (ratio to absence), gene YNL073W (yeast gene YNL073W, mitochondria-located protein genes, 2 h culture with chemical): 1.2
- The level of expressed mRNA in the presence of chemical substance/The level of expressed mRNA in the absence of chemical substance (yeast gene YNL093W): 2.2
- The level of expressed mRNA in the presence of chemical substance/ (in its absence), gene YNL192W (yeast gene YNL192W, ratio of DNA chip fluorescence intensity to that without chemical substance): 2.7
- The level of expressed mRNA in the presence of chemical substance/The level of expressed mRNA in the absence of chemical substance (yeast gene YNL333W): 2.2
- The level of expressed mRNA in the presence of chemical substance/The level of expressed mRNA in the absence of chemical substance (yeast gene YNR010W): 2.8
- The level of expressed mRNA in the presence of chemical substance/The level of expressed mRNA in the absence of chemical substance (yeast gene YNR069C): 3.4
- The level of expressed mRNA in the presence of chemical substance/ (in its absence), gene YNR072W (yeast gene YNR072W, ratio of DNA chip fluorescence intensity to that without chemical substance): 1.5
- The level of expressed mRNA in the presence of chemical substance/ (ratio to absence of chemical substance) (yeast gene YNR076W): 0.9
- The level of expressed mRNA in the presence of chemical substance/The level of expressed mRNA in the absence of chemical substance (yeast gene YOL013C): 1.8
- The level of expressed mRNA in the presence of chemical substance/ (ratio to absence), gene YOL096C (yeast gene YOL096C, mitochondria-located protein genes, 2 h culture with chemical): 1.4
- The level of expressed mRNA in the presence of chemical substance/ (in its absence), gene YOL096C (yeast gene YOL096C, ratio of DNA chip fluorescence intensity to that without chemical substance): 1.4
- The level of expressed mRNA in the presence of chemical substance/ (in its absence), gene YOL108C (yeast gene YOL108C, ratio of DNA chip fluorescence intensity to that without chemical substance): 1.3
- The level of expressed mRNA in the presence of chemical substance/ (in its absence), gene YOL116W (yeast gene YOL116W, ratio of DNA chip fluorescence intensity to that without chemical substance): 0.8
- The level of expressed mRNA in the presence of chemical substance/ (ratio to absence of chemical substance) (yeast gene YOL161C): 1.2
- The level of expressed mRNA in the presence of chemical substance/The level of expressed mRNA in the absence of chemical substance (yeast gene YOL164W): 3.4
- The level of expressed mRNA in the presence of chemical substance/ (ratio to absence of chemical substance) (yeast gene YOR008C): 0.9
- The level of expressed mRNA in the presence of chemical substance/ (ratio to absence of chemical substance) (yeast gene YOR009W): 0.4
- The level of expressed mRNA in the presence of chemical substance/ (ratio to absence of chemical substance) (yeast gene YOR010C): 0.5
- The level of expressed mRNA in the presence of chemical substance/The level of expressed mRNA in the absence of chemical substance (yeast gene YOR036W): 2.1
- The level of expressed mRNA in the presence of chemical substance/ (in its absence), gene YOR103C (yeast gene YOR103C, ratio of DNA chip fluorescence intensity to that without chemical substance): 0.8
- The level of expressed mRNA in the presence of chemical substance/The level of expressed mRNA in the absence of chemical substance (yeast gene YOR117W): 2.3
- The level of expressed mRNA in the presence of chemical substance/The level of expressed mRNA in the absence of chemical substance (yeast gene YOR124C): 2.1
- The level of expressed mRNA in the presence of chemical substance/The level of expressed mRNA in the absence of chemical substance (yeast gene YOR132W): 2.5
- The level of expressed mRNA in the presence of chemical substance/The level of expressed mRNA in the absence of chemical substance (yeast gene YOR157C): 2.4
- The level of expressed mRNA in the presence of chemical substance/ (in its absence), gene YOR180C (yeast gene YOR180C, ratio of DNA chip fluorescence intensity to that without chemical substance): 0.9
- The level of expressed mRNA in the presence of chemical substance/The level of expressed mRNA in the absence of chemical substance (yeast gene YOR181W): 1.2
- The level of expressed mRNA in the presence of chemical substance/The level of expressed mRNA in the absence of chemical substance (yeast gene YOR185C): 2.2
- The level of expressed mRNA in the presence of chemical substance/The level of expressed mRNA in the absence of chemical substance (yeast gene YOR198C): 1.8
- The level of expressed mRNA in the presence of chemical substance/ (in its absence), gene YOR251C (yeast gene YOR251C, ratio of DNA chip fluorescence intensity to that without chemical substance): 1.0
- The level of expressed mRNA in the presence of chemical substance/The level of expressed mRNA in the absence of chemical substance (yeast gene YOR259C): 1.8
- The level of expressed mRNA in the presence of chemical substance/The level of expressed mRNA in the absence of chemical substance (yeast gene YOR261C): 2.5
- The level of expressed mRNA in the presence of chemical substance/The level of expressed mRNA in the absence of chemical substance (yeast gene YOR288C): 2.4
- The level of expressed mRNA in the presence of chemical substance/ (ratio to absence), gene YOR316C (yeast gene YOR316C, mitochondria-located protein genes, 2 h culture with chemical): 1.6
- The level of expressed mRNA in the presence of chemical substance/ (in its absence), gene YOR348C (yeast gene YOR348C, ratio of DNA chip fluorescence intensity to that without chemical substance): 1.1
- The level of expressed mRNA in the presence of chemical substance/The level of expressed mRNA in the absence of chemical substance (yeast gene YOR355W): 1.1
- The level of expressed mRNA in the presence of chemical substance/ (in its absence), gene YOR363C (yeast gene YOR363C, ratio of DNA chip fluorescence intensity to that without chemical substance): 1.3
- The level of expressed mRNA in the presence of chemical substance/The level of expressed mRNA in the absence of chemical substance (yeast gene YOR383C): 1.2
- The level of expressed mRNA in the presence of chemical substance/ (ratio to absence), gene YPL040C (yeast gene YPL040C, mitochondria-located protein genes, 2 h culture with chemical): 1.0
- The level of expressed mRNA in the presence of chemical substance/ (ratio to absence of chemical substance) (yeast gene YPL059W): 0.7
- The level of expressed mRNA in the presence of chemical substance/The level of expressed mRNA in the absence of chemical substance (yeast gene YPL089C): 1.3
- The level of expressed mRNA in the presence of chemical substance/The level of expressed mRNA in the absence of chemical substance (yeast gene YPL109C): 1.8
- The level of expressed mRNA in the presence of chemical substance/ (ratio to absence), gene YPL134C (yeast gene YPL134C, mitochondria-located protein genes, 2 h culture with chemical): 1.0
- The level of expressed mRNA in the presence of chemical substance/ (ratio to absence of chemical substance) (yeast gene YPL140C): 0.9
- The level of expressed mRNA in the presence of chemical substance/ (in its absence), gene YPL148C (yeast gene YPL148C, ratio of DNA chip fluorescence intensity to that without chemical substance): 0.6
- The level of expressed mRNA in the presence of chemical substance/The level of expressed mRNA in the absence of chemical substance (yeast gene YPL149W): 2.3
- The level of expressed mRNA in the presence of chemical substance/The level of expressed mRNA in the absence of chemical substance (yeast gene YPL154C): 3.1
- The level of expressed mRNA in the presence of chemical substance/ (ratio to absence of chemical substance) (yeast gene YPL194W): 1.4
- The level of expressed mRNA in the presence of chemical substance/ (ratio to absence of chemical substance) (yeast gene YPR005C): 0.7
- The level of expressed mRNA in the presence of chemical substance/The level of expressed mRNA in the absence of chemical substance (yeast gene YPR103W): 2.8
- The level of expressed mRNA in the presence of chemical substance/The level of expressed mRNA in the absence of chemical substance (yeast gene YPR108W): 2.6
- The level of expressed mRNA in the presence of chemical substance/ (in its absence), gene YPR165W (yeast gene YPR165W, ratio of DNA chip fluorescence intensity to that without chemical substance): 1.0
- The level of expressed mRNA in the presence of chemical substance/ in its absence, gene YPR184W (energy system protein genes, 2 h culture with the chemical, ratio to control without chemical): 2.5
- The level of expressed mRNA in the presence of chemical substance/ in its absence, gene YPR184W (ratio of DNA chip fluorescence intensity to that without chemical substance): 2.5
